This note sets out measurements from PubChem BioAssay (NCI).

Some test systems named below: CAKI-1 renal; CCRF-CEM leukemia; EKVX NSCLC; IGROV1 ovarian; K-562 leukemia; MCF7 breast; NCI-H460 lung; SF-539 CNS; SK-MEL-2 melanoma; SR leukemia.
Holding throughout (assay): NCI anticancer screen, dose series, 48 h

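Five concentrations, 48 hours, 96-well plates. GI50 = concentration required for 50% inhibition of growth. TGI marks complete inhibition of growth.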

In the case of `CCN(Cc1nc2cc(C(F)(F)F)ccc2nc1-c1ccccc1)c1ccc(OC)c(OC)c1`, the GI50 in the assay on CAKI-1 renal was 17.4 µM; with CCRF-CEM leukemia, 4.74 µM; with EKVX NSCLC, 20.1 µM; with IGROV1 ovarian, 16.8 µM; in the assay on K-562 leukemia, 6.72 µM; in the assay with MCF7 breast it was 25.9 µM. The GI50 in the assay with NCI-H460 lung is 22.2 µM; with SF-539 CNS, 15.9 µM; in the assay with SK-MEL-2 melanoma, 16.7 µM; with SR leukemia, 7.61 µM. Also, the TGI was 64.2 µM with CAKI-1 renal; 24.7 µM in the assay with CCRF-CEM leukemia; 73.6 µM in the assay with EKVX NSCLC; 33.7 µM with IGROV1 ovarian; 24.6 µM with K-562 leukemia; over 100 µM in the assay with MCF7 breast. In addition, the TGI in the assay on NCI-H460 lung is over 100 µM; in the assay on SF-539 CNS it was 33.1 µM; in the assay on SK-MEL-2 melanoma, 34.7 µM; with SR leukemia, 31.2 µM.

As to `CCCC[P+](c1ccccc1)(c1ccccc1)c1ccccc1`, the GI50 with CAKI-1 renal is over 100 µM; in the assay on CCRF-CEM leukemia it was 1.72 µM; in the assay with EKVX NSCLC, 1 µM; in the assay on IGROV1 ovarian, 11.4 µM; with K-562 leukemia, 0.577 µM; in the assay with MCF7 breast, 1.33 µM. In addition, the GI50 is 1.96 µM with NCI-H460 lung, 7.09 µM in the assay on SF-539 CNS, 3.42 µM with SK-MEL-2 melanoma and 1.96 µM with SR leukemia. Also, the TGI in the assay with CAKI-1 renal, in the assay on CCRF-CEM leukemia, with EKVX NSCLC, in the assay with IGROV1 ovarian, in the assay with K-562 leukemia and in the assay on MCF7 breast was over 100 µM each time. Moreover, the TGI is 24.7 µM with NCI-H460 lung, over 100 µM in the assay with SF-539 CNS, 19.6 µM in the assay on SK-MEL-2 melanoma and over 100 µM with SR leukemia.

In the case of `COC(=O)c1c2c(c(C)[n+]([O-])c1C)C(=O)C(NCc1cccc(OC)c1)=CC2=O`, the GI50 in the assay with CAKI-1 renal was 2.79 µM; in the assay with CCRF-CEM leukemia, 3.09 µM; in the assay with EKVX NSCLC it was 2.11 µM; in the assay on IGROV1 ovarian, 1.69 µM; with K-562 leukemia, 2.98 µM; in the assay on MCF7 breast, 1.65 µM. The GI50 with NCI-H460 lung was 1.71 µM; in the assay on SF-539 CNS it was 2.02 µM; with SK-MEL-2 melanoma, 2.55 µM; in the assay on SR leukemia, 2.36 µM. Besides, the TGI was 10.3 µM in the assay on CAKI-1 renal; 17.1 µM in the assay on CCRF-CEM leukemia; 5.44 µM with EKVX NSCLC; 4.11 µM in the assay on IGROV1 ovarian; over 100 µM with K-562 leukemia; 3.63 µM with MCF7 breast. In addition, the TGI is 8 µM in the assay with NCI-H460 lung, 4.15 µM in the assay with SF-539 CNS, 7.49 µM with SK-MEL-2 melanoma and over 100 µM in the assay with SR leukemia.

Regarding `O=C(c1ccco1)c1c(C(F)(F)F)nc2cc(C(F)(F)F)ccc2[n+]1[O-]`, the GI50 in the assay on CAKI-1 renal was 19.7 µM; with CCRF-CEM leukemia, 15.6 µM; in the assay on EKVX NSCLC, 50.6 µM; with IGROV1 ovarian, 26.5 µM; with K-562 leukemia, 38.3 µM; with MCF7 breast it was 35.3 µM. The GI50 with NCI-H460 lung was 56 µM; with SF-539 CNS, 21.2 µM; with SK-MEL-2 melanoma, 69.3 µM; in the assay with SR leukemia it was 33.7 µM. Besides, the TGI with CAKI-1 renal was 58.8 µM; in the assay with CCRF-CEM leukemia, 44.3 µM; in the assay on EKVX NSCLC it was over 100 µM; in the assay on IGROV1 ovarian, 90.6 µM; in the assay on K-562 leukemia it was over 100 µM; in the assay with MCF7 breast, over 100 µM. In addition, the TGI in the assay with NCI-H460 lung is over 100 µM; in the assay with SF-539 CNS, 54.2 µM; in the assay on SK-MEL-2 melanoma, over 100 µM; with SR leukemia, over 100 µM.

Consider `CCCCSCc1nc2nc(Cl)c(Cl)nc2[nH]1`, for which the TGI in the assay with CAKI-1 renal was 79.3 µM; in the assay on CCRF-CEM leukemia, 63.6 µM; in the assay on EKVX NSCLC it was over 100 µM; in the assay with IGROV1 ovarian, over 100 µM; in the assay on K-562 leukemia, 99.5 µM; in the assay on MCF7 breast, 68 µM. Further, the TGI with NCI-H460 lung was 53.8 µM; in the assay on SF-539 CNS, over 100 µM; in the assay on SK-MEL-2 melanoma, 43.3 µM; in the assay with SR leukemia it was 52.3 µM.
